Source: PubChem BioAssay (NCI)
Values joined by “and” are separate entries in the source; they are usually repeats but may differ in a detail not shown here. Identical values can stand only once.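 Test compounds were applied to cells in 96-well plates for 48 hours at 5 doses. GI50 marks 50% less growth. The concentration for full growth arrest is given as TGI.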

Key:
Experiment in all cases: inhibition of tumour cell growth, NCI panel, 48 h
RPMI-8226 leukemia = test system: RPMI-8226 leukemia
MDA-MB-435 = test system: MDA-MB-435
SK-MEL-5 melanoma = test system: SK-MEL-5 melanoma
ACHN renal = test system: ACHN renal
HCT-15 colon = test system: HCT-15 colon
MALME-3M melanoma = test system: MALME-3M melanoma
NCI-H522 lung = test system: NCI-H522 lung
NCI-H226 lung = test system: NCI-H226 lung
OVCAR-8 ovarian = test system: OVCAR-8 ovarian
LOX IMVI melanoma = test system: LOX IMVI melanoma

Row | Compound | GI50 (RPMI-8226 leukemia) | TGI (RPMI-8226 leukemia) | GI50 (MDA-MB-435) | TGI (MDA-MB-435) | GI50 (SK-MEL-5 melanoma) [µM] | TGI (SK-MEL-5 melanoma) | GI50 (ACHN renal) | TGI (ACHN renal) | GI50 (HCT-15 colon) [µM] | TGI (HCT-15 colon) | GI50 (MALME-3M melanoma) | TGI (MALME-3M melanoma) | GI50 (NCI-H522 lung) [µM] | TGI (NCI-H522 lung) | GI50 (NCI-H226 lung) | TGI (NCI-H226 lung) | GI50 (OVCAR-8 ovarian) | TGI (OVCAR-8 ovarian) | GI50 (LOX IMVI melanoma) | TGI (LOX IMVI melanoma)
1 | CCCCCCC#CC#Cc1cccc(=O)o1 | 1.72 µM | 27.3 µM | 1.39 µM | 3.28 µM | 0.304 | 0.994 µM | 1.84 µM | 3.96 µM | 1.67 | 3.64 µM | 1.56 µM | 3.79 µM | 1.8 | 27.8 µM | 2.07 µM | 4.7 µM | 1.14 µM | 5.47 µM | 0.122 µM | 0.43 µM
2 | Cc1cc(C)cc(Nc2ccc([N+](=O)[O-])c(NCCN3CCOCC3)n2)c1 | 0.00455 µM and 0.0366 µM | > 100 µM | – | 0.0115 µM | 0.00082 | 0.0332 µM and 0.256 µM | 0.0143 µM and 0.012 µM | > 100 µM | 0.000928 | > 100 µM | 16 µM | > 100 µM | 0.000235 | – | 0.0365 µM and 0.0614 µM | > 100 µM | 0.006 µM and 0.0368 µM | > 100 µM | 0.0159 µM and 0.0114 µM | > 100 µM
3 | O=C(CNc1ncco1)Nc1ccc(S(=O)(=O)c2ccc(NC(=O)CNc3ncco3)cc2)cc1 | 1.11 µM | 3.01 µM | 2.08 µM | 7.26 µM | 1.52 | 2.88 µM | 2.23 µM | 6.23 µM | 1.47 | 5.44 µM | 2.12 µM | 4.56 µM | 1.48 | 3.14 µM | 2.32 µM | 7.09 µM | 2.4 µM | 15.7 µM | 0.308 µM | 1.92 µM
4 | NCCP(=O)(O)O | – | > 100 µM | – | > 100 µM | – | > 100 µM | – | > 100 µM | – | > 100 µM | – | > 100 µM | – | > 100 µM | – | > 100 µM | – | > 100 µM | – | > 100 µM
5 | N#C/C(N)=C(\C#N)N=Cc1csc2ccccc12 | > 100 µM | > 100 µM | 36.2 µM | > 100 µM | 22.9 | > 100 µM | 29.9 µM | > 100 µM | 71.9 | > 100 µM | 50.9 µM | > 100 µM | 28.9 | > 100 µM | 19.4 µM | 76.3 µM | 20.8 µM | 55.7 µM | 26.3 µM | 66.3 µM
6 | COc1ccc(C(=O)COc2cccc(/C=C3\CSc4ccc(Cl)cc4C3=O)c2)cc1 | 0.214 µM | 3.51 µM | 3.48 µM | 17 µM | 3.93 | 18.5 µM | 11.9 µM | 24.6 µM | 1.83 | 4.36 µM | 11.6 µM | 32 µM | 2.07 | 4.9 µM | 14.4 µM | 62.8 µM | 9.35 µM | 56.3 µM | 1.79 µM | 3.48 µM
7 | O=C1C(=O)c2ccccc2C(O)=C1CC=C(Cl)Cl | 6.53 µM | 37.4 µM and 65.2 µM and 45.9 µM | 5.7 µM and 7.43 µM | 29.2 µM and 109 µM and 80.6 µM | 3.54 | 22.6 µM and 43 µM and 21.6 µM | 3.48 µM and 7.5 µM | 23 µM and 187 µM and > 100 µM | 0.424 | 51.7 µM and 159 µM and > 100 µM | 16.2 µM and 28.2 µM | 51.8 µM and 42.5 µM and 94.5 µM | 8.02 | 40.5 µM and 117 µM and 89.8 µM | 8.26 µM and 24.2 µM and 14.4 µM | 39.9 µM and 135 µM and 91.1 µM | 6.49 µM and 4.81 µM | 206 µM and > 100 µM | 2.68 µM | 30.7 µM and 51.9 µM and > 100 µM
8 | CC(=O)c1cc2c(c3ccsc13)-c1ccccc1CC2 | 25.8 µM | 75 µM | 4.76 µM | > 100 µM | 12.7 | 35.7 µM | 45.5 µM | > 100 µM | 22.3 | > 100 µM | 15.7 µM | 55.2 µM | 19.7 | 79.1 µM | 38 µM | > 100 µM | 53.1 µM | > 100 µM | 32.3 µM | > 100 µM
9 | C1=C(c2ccccc2)C(c2ccc(OCCN3CCCCC3)cc2)Oc2ccccc21 (centres undefined) | 2.25 µM | 5.02 µM | 1.64 µM | 3.03 µM | 1.78 | 3.16 µM | 1.66 µM | 3.15 µM | 1.5 | 2.99 µM | 1.73 µM | 3.48 µM | 1.59 | 3.37 µM | 4.08 µM | 16.7 µM | 2.3 µM | 5.91 µM | 1.65 µM | 3.01 µM
10 | O=C(O)c1cc(Cc2ccc(O)c(C(=O)O)c2)ccc1O (tested in a mixture with another compound) | 2.62 µM | > 100 µM | 4.2 µM | 16 µM | 4.9 | 19.8 µM | 11 µM | 24.8 µM | 3.35 | 17 µM | 8.55 µM | 23.9 µM | 12.5 | 33.8 µM | 7.29 µM | 23.3 µM | 2.41 µM | 6.26 µM | 2.99 µM | 15.7 µM
11 | COC(=O)C1(C2CC/C(C)=C/CC/C(C)=C/CC[C@@]3(C)O[C@@H]3C2)CC1 (some centres undefined) | 16.9 µM | 48.4 µM | 32.1 µM | 98.3 µM | 56.1 | > 100 µM | > 41.3 µM | > 62.2 µM | > 66.7 | > 100 µM | > 83.8 µM | > 100 µM | 50.4 | > 100 µM | > 72.2 µM | > 100 µM | > 44.3 µM | > 65.1 µM | 23.6 µM | > 60.5 µM
12 | CC(=O)OC1CCC2(C)C(=CCC3C4CCC5(OC6CC(C)CN(C(C)=O)C6C5C)C(C)=C4C(=O)C32)C1 (centres undefined) | – | 37.6 µM | – | 32 µM | – | 21.9 µM | – | 67 µM | – | 33.6 µM | – | 29.9 µM | – | 29.4 µM | – | 45.8 µM | – | 46.1 µM | – | 24.4 µM
13 | Oc1c(I)cc(-c2nc3ccccc3s2)cc1CN(Cc1ccccn1)Cc1ccccn1 | 0.385 µM | 3.03 µM | 0.428 µM | 14.3 µM | 0.179 | 0.438 µM | 0.286 µM | 3.37 µM | 0.379 | > 100 µM | 0.288 µM | 4.79 µM | 0.415 | 14.4 µM | 0.269 µM | 3.16 µM | 0.335 µM | 37.5 µM | 0.305 µM | 1.38 µM
14 | CCOC(=O)N[C@H]1CCc2c(Br)c(OC)c(OC)c(OC)c2-c2ccc(SC)c(=O)cc21 | < 0.01 µM | > 33.7 µM | < 0.01 µM | – | < 0.01 | 0.0237 µM | < 0.01 µM | 15 µM | < 0.01 | 12.2 µM | < 0.01 µM | 28.4 µM | < 0.01 | 10.1 µM | < 0.0165 µM | 13.9 µM | 0.0234 µM | > 56.4 µM | < 0.01 µM | 12.5 µM
15 | COc1cc(-c2cc(/C=C3\C(=O)Nc4ccccc43)[nH]n2)cc(OC)c1OC | 1.77 µM | 4.37 µM | 2.38 µM | 6.25 µM | 1.57 | 3.45 µM | 2.5 µM | 12 µM | 2.57 | 10.1 µM | 2.28 µM | 7.47 µM | 1.99 | 6.3 µM | 2.43 µM | 15.5 µM | 2.5 µM | 7.48 µM | 2.43 µM | 7.94 µM
16 | NC(=S)N/N=C\c1nccc2c(N)cccc12 | 0.223 µM | > 82.8 µM | 0.379 µM | > 100 µM | 0.324 | 4.01 µM | 0.0977 µM | – | 0.426 | > 100 µM | 0.316 µM | 3.08 µM | 0.178 | 0.509 µM | 0.282 µM | 1.08 µM | 0.222 µM | – | 0.292 µM | –
